Where two headings read alike, the source gives them in different places. Marks after values point to notes of the source that are not given here.
Columns and labels:
[1] = tested on: Chinese hamster ovarian (CHO) cell line; details: read-out: CHO IC50
[2] = tested on: D10 strain of P. falciparum; experiment: Parasite growth inhibition, CQ-sensitive D10 strain; type: cell-based, Plasmodium falciparum
[3] = tested on: NF54 strain of P. falciparum; experiment: Parasite growth inhibition, CQ-sensitive NF54 strain; type: cell-based, Plasmodium falciparum
[4] = Kinetic solubility; details: for Kinetic solubility FaSSIF / Kinetic solubility pH 6.5: pH 6.5
[5] = In vitro metabolic stability, human liver microsomes
[6] = tested on: D6 strain of P. falciparum; details: read-out: parasite activity against the D6 strain, HTS; cited from earlier work
[7] = tested on: parasitized erythrocyte, CQ-sensitive D10 strain; experiment: Inoculum effect measurement of cellular accumulation; type: cell-based, Plasmodium falciparum; details: IC50 vs initial parasitemia
[8] = tested on: β-hematin (βH) formation; experiment: NP-40 detergent mediated β-hematin inhibition assay; type: biochemical; details: read-out: βH inhibition IC50; NP-40 assay
[9] = In vitro metabolic stability, mouse liver microsomes
[10] = In vitro metabolic stability, rat liver microsomes
[11] = tested on: K1 CQ-resistant strain; details: read-out: K1 parasite IC50
[12] = Association constant with Fe; type: binding; details: for logK (association constant with Fe(III)PPIX): 1:1 complex, 7.5 μM hematin, 40% v/v DMSO, pH 7.5; for Binding constant ratio relative to 12c (K/K12c): from logK values
[13] = 1:1 complex, 40% DMSO; cited from earlier work
[14] = read-out: D10 parasite IC50, CQ-sensitive D10 strain
[15] = read-out: NF54 parasite IC50, CQ-sensitive NF54 strain

5-Nitro-N,N-di(pyridin-4-yl)isophthalamide [Compound 15a]
IC50 [1]: > 275 µM | IC50 [2, 14]: 900 ± 100 nM | IC50 [3, 15]: 700 ± 200 nM | Kinetic solubility FaSSIF [4]: 13 µM | Kinetic solubility pH 2 [4]: 199.7 μM | Kinetic solubility pH 6.5 [4]: < 5 μM | Degradation half-life [5]: >150 min | Hepatic extraction (EH) [5]: <0.42 | In vitro clearance [5]: <11.6 μL/min/mg protein | IC50 [6]: 190 nM | inoculum effect / cellular accumulation [7]: larger accumulation ratios | IC50 [8]: 4.3 ± 0.1 µM | Degradation half-life [9]: >150 min | Hepatic extraction (EH) [9]: <0.33 | In vitro clearance [9]: <11.6 μL/min/mg protein | Degradation half-life [10]: >150 min | Hepatic extraction (EH) [10]: <0.30 | In vitro clearance [10]: <11.6 μL/min/mg protein

N,N-Di(pyridin-4-yl)pyridine-2,6-dicarboxamide [Compound 15o]
IC50 [3, 15]: > 315000 nM | IC50 [8]: 260 ± 7 µM

5-Nitro-N,N-di(pyridin-3-yl)isophthalamide [Compound 15b]
IC50 [3, 15]: 1320 ± 40 nM | IC50 [8]: 4.7 ± 0.7 µM

N,N-Diphenylpyridine-2,6-dicarboxamide [Compound 15p]
IC50 [3, 15]: > 315000 nM | IC50 [8]: > 1000 µM

5-(tert-Butyl)-N,N-di(pyridin-3-yl)isophthalamide [Compound 15i]
IC50 [1]: 185 µM | IC50 [2, 14]: 700 ± 100 nM | IC50 [11]: 1700 ± 400 nM | IC50 [3, 15]: 600 ± 100 nM | Kinetic solubility FaSSIF [4]: 153.6 µM | Kinetic solubility pH 2 [4]: 197.2 μM | Kinetic solubility pH 6.5 [4]: 92.7 μM | Degradation half-life [5]: 141.9 min | Hepatic extraction (EH) [5]: 0.4 | In vitro clearance [5]: 14.1 μL/min/mg protein | IC50 [8]: 6.8 ± 0.1 µM | Degradation half-life [9]: 52.4 min | Hepatic extraction (EH) [9]: 0.6 | In vitro clearance [9]: 130.3 μL/min/mg protein | Degradation half-life [10]: 93.2 min | Hepatic extraction (EH) [10]: 0.4 | In vitro clearance [10]: 33.5 μL/min/mg protein

5-Cyano-N,N-di(pyridin-4-yl)isophthalamide [Compound 15d]
IC50 [2, 14]: 2000 ± 200 nM | IC50 [3, 15]: 1900 ± 200 nM | IC50 [8]: 6.34 ± 0.09 µM

5-(tert-Butyl)-N,N-di(pyridin-4-yl)isophthalamide [Compound 15h]
IC50 [3, 15]: 1600 ± 200 nM | IC50 [8]: 13.3 ± 0.7 µM

5-Methoxy-N,N-diphenylisophthalamide [Compound 15n]
IC50 [3, 15]: 37000 ± 13000 nM | IC50 [8]: > 1000 µM

5-Nitro-N,N-diphenylisophthalamide [Compound 15c]
IC50 [3, 15]: 1400 ± 200 nM | IC50 [8]: 7 ± 0.2 µM

N,N-bis(4-((Dimethylamino)methyl)phenyl)-5-nitroisophthalamide [Compound 17]
IC50 [3, 15]: 1500 ± 200 nM | inoculum effect / cellular accumulation [7]: insignificant inoculum effect | IC50 [8]: 7.9 ± 0.2 µM

5-Methyl-N,N-di(pyridin-4-yl)isophthalamide [Compound 15f]
IC50 [3, 15]: 2500 ± 600 nM | IC50 [8]: 8 ± 1 µM | logK (association constant with Fe(III)PPIX) [12]: 3.92 ± 0.21 | Binding constant ratio relative to 12c (K/K12c) [12]: 5.24

N,N-Di(pyridin-4-yl)isophthalamide [Compound 15k]
IC50 [3, 15]: 9000 ± 4000 nM | IC50 [8]: 507 ± 33 µM

5-Cyano-N,N-diphenylisophthalamide [Compound 15e]
IC50 [2, 14]: 5200 nM | IC50 [8]: 4.4 ± 0.2 µM

5-Methyl-N,N-diphenylisophthalamide [Compound 15g]
IC50 [3, 15]: 146000 ± 1000 nM | IC50 [8]: > 1000 µM

O=C(Nc1ccncc1)c1cc([N+](=O)[O-])cc([N+](=O)[O-])c1 [Compound 12c, 3,5-Dinitro-N-(pyridin-4-yl)benzamide]
logK (association constant with Fe(III)PPIX) [12]: 3.20 ± 0.36 | Binding constant ratio relative to 12c (K/K12c) [12]: 1

5-Methoxy-N,N-di(pyridin-4-yl)isophthalamide [Compound 15m]
IC50 [3, 15]: 3000 ± 500 nM | IC50 [8]: 22 ± 1 µM

CCN(CC)CCCC(C)Nc1ccnc2cc(Cl)ccc12 (stereo not shown) [CQ, chloroquine, reference compound]
IC50 ([2]; Plasmodium falciparum, D10, read-out: D10 parasite IC50): 21 ± 2 nM | IC50 ([3]; Plasmodium falciparum, NF54, read-out: NF54 parasite IC50): 8 ± 2 nM | logK (association constant with Fe(III)PPIX) [13]: 5.52 ± 0.03 ^a

O=C(Nc1ccccc1)c1cc(C(=O)Nc2nc3ccccc3[nH]2)cc([N+](=O)[O-])c1 [Compound 18, N^1-(1H-Benzo[d]imidazol-2-yl)-5-nitro-N^3-phenylisophthalamide]
IC50 ([3]; Plasmodium falciparum, NF54, read-out: parasite activity (maximum dose concentration)): > 249000 nM

5-(tert-Butyl)-N,N-diphenylisophthalamide [Compound 15j]
IC50 [3, 15]: 8100 ± 500 nM | IC50 [8]: > 1000 µM

— article PMC4945415 (Journal of medicinal chemistry, 2016)
